From ChEMBL document CHEMBL4834476, “Potent antiviral activity of Agrimonia pilosa, Galla rhois, and their components against SARS-CoV-2” (2021)
The source made the active and inactive calls. No cut-off for these calls is given here.

What was measured:
SARS-CoV-2 [1] = assay: (§1) Antiviral activity against SARS-CoV-2 NCCP43326 infected in African green monkey Vero cells assessed as inhibition of plaque formation at 1 to 25 ug/ml treated with compound for 1 hr post-infection followed by drug wash-out and measured at 72 hrs post-infection by crystal violet staining analysis; type: functional; details: for Activity: Severe acute respiratory syndrome coronavirus 2, dose 1-25 µg/ml
SARS-CoV-2 [2] = assay: as §1, with “at” for “at 1 to”, “analysis relative to control” for “analysis”; type: functional; details: Severe acute respiratory syndrome coronavirus 2, NCCP43326, Vero
SARS-CoV-2 [3] = assay: Antiviral activity against SARS-CoV-2 NCCP43326 infected in African green monkey Vero cells assessed as reduction in spike protein production at 1 to 25 ug/ml treated with compound for 1 hr post-infection followed by drug wash-out and measured at 72 hrs post-infection by ELISA; type: functional, organism-based; details: Severe acute respiratory syndrome coronavirus 2, dose 1-25 µg/ml
SARS-CoV-2 [4] = assay: Antiviral activity against SARS-CoV-2 NCCP43326 infected in African green monkey Vero cells assessed as reduction in spike protein production at 1 to 25 ug/ml cells were infected with virus for 1 hr followed by wash-out period and later treated with compound and measured after 72 hrs by ELISA; type: functional, organism-based; details: Severe acute respiratory syndrome coronavirus 2, dose 1-25 µg/ml
SARS-CoV-2 [5] = assay: Antiviral activity against SARS-CoV-2 NCCP43326 infected in African green monkey Vero cells assessed as inhibition of plaque formation at 0.125 to 0.5 ug/ml treated with compound for 1 hr post-infection followed by drug wash-out and measured at 72 hrs post-infection by staining analysis; type: functional, organism-based; details: Severe acute respiratory syndrome coronavirus 2, dose 0.125-0.5 µg/ml

C[C@H]1[C@H](C)CC[C@]2(C(=O)O)CC[C@]3(C)C(=CC[C@@H]4[C@@]5(C)CC[C@H](O)C(C)(C)[C@@H]5CC[C@]43C)[C@H]12 [URSOLIC ACID] was tested. Which Activity (SARS-CoV-2 [1]) did it give?
The Activity was “Active”.

And the inhibition at 25 µg/mL (SARS-CoV-2 [2])?
Its inhibition at 25 µg/mL is 78.3%.

What about the Activity (SARS-CoV-2 [3]) of the same compound?
The Activity was “Active”.

And the Activity (SARS-CoV-2 [4])?
Its Activity is “Active”.

With O=C(OC[C@H]1O[C@@H](OC(=O)c2cc(O)c(O)c(O)c2)[C@H](OC(=O)c2cc(O)c(O)c(O)c2)[C@@H](OC(=O)c2cc(O)c(O)c(O)c2)[C@@H]1OC(=O)c1cc(O)c(O)c(O)c1)c1cc(O)c(O)c(O)c1 [PENTAGALLOYL GLUCOSE] as the compound, how does the Activity (SARS-CoV-2 [5]) read?
Its Activity is “Active”.

What about the “inhibition (INH)” value (SARS-CoV-2 [1]; dose 1-25 µg/ml, at 1 to 25 µg/mL) of the same compound?
The value was 100%.

And the inhibition at 25 µg/mL (SARS-CoV-2 [2])?
Its inhibition at 25 µg/mL is 100%.

What about the Activity (SARS-CoV-2 [3]) of the same compound?
The Activity was “Active”.

And the Activity (SARS-CoV-2 [4])?
Its Activity is “Active”.

O=c1c(O)c(-c2ccc(O)c(O)c2)oc2cc(O)cc(O)c12 [QUERCETIN] was tested. Which Activity (SARS-CoV-2 [1]) did it give?
Its Activity is “Active”.

What about the inhibition at 25 µg/mL (SARS-CoV-2 [2]) of the same compound?
The inhibition at 25 µg/mL was 67.2%.

What about the Activity (SARS-CoV-2 [3]) of the same compound?
The Activity was “Active”.

What about the Activity (SARS-CoV-2 [4]) of the same compound?
Its Activity is “Active”.

What does the source list for CCOC(=O)c1cc(O)c(O)c(O)c1 [ETHYLGALLATE]?
Activity (SARS-CoV-2 [1]): Active; inhibition at 25 µg/mL (SARS-CoV-2 [2]): 21.1%
